Results on 17 compounds are retold here after BindingDB's records for doi:10.1080/14756360701408754 (Pharmaceutical Research Centre, 2008).

For this test, the target named is T1, Seed linoleate 13S-lipoxygenase-1 (Glycine max, UniProt P08170).
T1 sequence (P08170 whole entry): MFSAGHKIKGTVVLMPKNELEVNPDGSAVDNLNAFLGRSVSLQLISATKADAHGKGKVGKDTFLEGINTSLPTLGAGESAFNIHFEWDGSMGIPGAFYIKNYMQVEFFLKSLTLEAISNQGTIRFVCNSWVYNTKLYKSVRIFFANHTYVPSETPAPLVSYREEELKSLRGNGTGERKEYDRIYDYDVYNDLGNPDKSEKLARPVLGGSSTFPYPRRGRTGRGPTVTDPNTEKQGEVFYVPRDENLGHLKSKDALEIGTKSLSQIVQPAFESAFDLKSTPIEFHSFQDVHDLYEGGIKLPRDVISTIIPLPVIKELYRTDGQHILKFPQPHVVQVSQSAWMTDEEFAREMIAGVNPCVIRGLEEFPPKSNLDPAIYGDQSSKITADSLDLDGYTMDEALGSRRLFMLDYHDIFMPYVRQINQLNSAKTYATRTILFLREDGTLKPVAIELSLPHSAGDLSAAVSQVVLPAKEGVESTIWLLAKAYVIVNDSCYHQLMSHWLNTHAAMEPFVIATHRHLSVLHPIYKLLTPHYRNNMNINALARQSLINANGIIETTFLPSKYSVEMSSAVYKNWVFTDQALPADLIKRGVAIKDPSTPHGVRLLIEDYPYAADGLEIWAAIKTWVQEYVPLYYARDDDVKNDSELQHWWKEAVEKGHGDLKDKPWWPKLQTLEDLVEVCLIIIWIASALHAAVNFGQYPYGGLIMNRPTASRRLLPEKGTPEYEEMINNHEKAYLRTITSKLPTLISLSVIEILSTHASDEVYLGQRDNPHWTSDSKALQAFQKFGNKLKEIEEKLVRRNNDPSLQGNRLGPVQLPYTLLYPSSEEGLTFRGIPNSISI
The test can be described thus: Inhibition Assay. As to conditions: pH 8; 25 °C. Here is the method: In vitro liposygenase inhibition assay activity was measured by modifying the spectrophotometric method developed by Tappel. The compound was prepared in methanol at various concentrations ([…]). The inhibition by lipoxygenase activity by 50% (IC50) was determined by monitoring the effect of increasing concentrations of these compounds in the assays on the degree of inhibition.

Take `CC1(C)CC(=O)C(C(c2ccccc2)C2C(=O)CC(C)(C)CC2=O)C(=O)C1` [Tetraketone, 2]: the IC50 turned out to be 33 µM.
For the compound `Cc1ccc(C(C2C(=O)CC(C)(C)CC2=O)C2C(=O)CC(C)(C)CC2=O)cc1` [Tetraketone, 3], the IC50 worked out at 16.3 µM.
In turn, `CC1(C)CC(=O)C(C(c2ccccc2O)C2C(=O)CC(C)(C)CC2=O)C(=O)C1` [Tetraketone, 4] returned an IC50 of 198 µM.
The figure for `CC1(C)CC(=O)C(C(c2ccc(O)cc2)C2C(=O)CC(C)(C)CC2=O)C(=O)C1` [Tetraketone, 6] is 26.4 µM; for `COc1ccccc1C(C1C(=O)CC(C)(C)CC1=O)C1C(=O)CC(C)(C)CC1=O` [Tetraketone, 7] it is 196 µM.
The figure for `COc1ccc(C(C2C(=O)CC(C)(C)CC2=O)C2C(=O)CC(C)(C)CC2=O)cc1` [Tetraketone, 8] is 21.3 µM; for `COc1ccc(C(C2C(=O)CC(C)(C)CC2=O)C2C(=O)CC(C)(C)CC2=O)c(OC)c1` [Tetraketone, 9] it is 33.1 µM.
Regarding `CCOc1ccc(C(C2C(=O)CC(C)(C)CC2=O)C2C(=O)CC(C)(C)CC2=O)cc1` [Tetraketone, 10], the concentration for half-maximal inhibition (IC50) was determined as 30.8 µM.
For `CN(C)c1ccc(C(C2C(=O)CC(C)(C)CC2=O)C2C(=O)CC(C)(C)CC2=O)cc1` [Tetraketone, 11], the IC50 is 17.5 µM.
The value for `CC1(C)CC(=O)C(C(c2ccccc2Cl)C2C(=O)CC(C)(C)CC2=O)C(=O)C1` [Tetraketone, 12] was 28.4 µM; that for `CC1(C)CC(=O)C(C(c2cccc(Br)c2)C2C(=O)CC(C)(C)CC2=O)C(=O)C1` [Tetraketone, 14] was 52.9 µM; that for `CC1(C)CC(=O)C(C(c2ccc(O)c(Br)c2)C2C(=O)CC(C)(C)CC2=O)C(=O)C1` [Tetraketone, 15] was 27.1 µM.
The value for `CC1(C)CC(=O)C(C(c2ccccc2[N+](=O)[O-])C2C(=O)CC(C)(C)CC2=O)C(=O)C1` [Tetraketone, 16] was 191 µM; that for `CC1(C)CC(=O)C(C(c2ccc(/C=C/c3ccccc3)cc2)C2C(=O)CC(C)(C)CC2=O)C(=O)C1` [Tetraketone, 19] was 7.8 µM.
The value for `CC1(C)CC(=O)C(C(c2ccc(/C(Br)=C/c3ccccc3)cc2)C2C(=O)CC(C)(C)CC2=O)C(=O)C1` [Tetraketone, 20] was 35.4 µM.
`CC1(C)CC(=O)C(C(c2ccco2)C2C(=O)CC(C)(C)CC2=O)C(=O)C1` [Tetraketone, 21] had an IC50 of 51.5 µM. The IC50 values of the last two compounds are within 1.5-fold of each other.
`Cc1ccc(C(C2C(=O)CC(C)(C)CC2=O)C2C(=O)CC(C)(C)CC2=O)o1` [Tetraketone, 22] registered an IC50 of 12.5 µM.

One may read the IC50 as the midpoint of a concentration-inhibition curve. Higher therefore signals a need for much substance.
